Test results taken from ChEMBL document CHEMBL4266036, “Hoshinoamides A and B, Acyclic Lipopeptides from the Marine Cyanobacterium Caldora penicillata” (J Nat Prod, 2018).

Assays:
[1] = test system: Plasmodium falciparum; experiment: Antiplasmodial activity against Plasmodium falciparum 3D7 […] after 72 hrs by NBT dye based LDH assay; type: functional, organism-based; conditions: 3D7, 72 h
[2] = test system: HeLa; experiment: Cytotoxicity against human HeLa cells after 72 hrs by MTT assay; type: cell-based

IC50 [1] [µM] | SMILES | IC50 [2] [µM]
1 | CC[C@H](C)[C@H](NC(=O)[C@H](CC(C)C)N(C)C(=O)CCCCCCCCNC(=O)CCCc1ccc(O)cc1)C(=O)N(C)[C@@H](C(=O)N[C@@H](CCC(N)=O)C(=O)N1CCC[C@H]1C(=O)N(C)[C@@H](Cc1ccccc1)C(=O)N1CCC[C@H]1C(=O)OC)C(C)C | 29
0.52 | CC[C@H](C)[C@H](NC(=O)[C@H](CC(C)C)N(C)C(=O)CCCCCNC(=O)CCCc1ccc(O)cc1)C(=O)N(C)[C@@H](C(=O)N[C@@H](CCC(N)=O)C(=O)N[C@H](C(=O)N(C)[C@H](Cc1ccccc1)C(=O)N1CCC[C@H]1C(=O)OC)C(C)C)C(C)C | 14
